From patent US5034392A, “4-(3-(4-oxothiazolidinyl)butynylamines” (Hoechst-Roussel Pharmaceuticals Incorporated, priority 1990, dated 1991)
Structures can show the parent of a compound that is named as a salt.

Legend:
[1] = phenyl-para-quinone writhing assay in mice (analgesia); assay type: in vivo
Text: The compounds of the present invention are useful as analgesic agents due to their ability to alleviate pain in mammals. […] Exptl. Biol. Med., 95, 729 (1957)]. The analgesic activity of some of the compounds of the invention expressed in terms of percent inhibition of writhing is given in Table 1.

[2] = antihypertensive activity in the spontaneous hypertensive rat by the indirect tail cuff method; assay type: in vivo; conditions: at 50 mg/kg p.o, treated orally for three days, drop measured on the third day
Experimental: Antihypertensive activity is measured in the spontaneous hypertensive rat by the indirect tail cuff method. […] In this procedure a group of five animals is treated orally for three days with the test compound in relation to a control group of the same number. The drop in blood pressure is measured on the third day following administration.

SMILES | % Inhibition of Writhing ([1]; at 20 mg/kg s.c.) [%] | mm Hg decrease (decrease in mean arterial blood pressure) [2] [mm Hg] | other results
CC1SCC(=O)N1CC#CCN1CCC(O)(c2ccccc2)CC1.O=C(O)C(=O)O (stereo not shown) [2-Methyl-3-(4-(4-hydroxy-4-phenylpiperidino)-2-butynyl)-4-oxothiazolidine oxalate] | 51 | – | –
O=C(O)/C=C\C(=O)O.O=C(O)/C=C\C(=O)O.O=C1CSCN1CC#CCN1CCN(C(c2ccccc2)c2ccc(Cl)cc2)CC1 (stereo not shown) [3-(4-(1-(4-Chlorobenzhydryl)piperazino)-2-butynyl)-4-oxothiazolidine bis maleate] | – | 28 | –
O=C1CSCN1CC#CCN1CCN(c2ccc(F)cc2)CC1 [3-(4-(1-(4-Fluorophenyl)piperazino)-2-butynyl-4-oxothiazolidine oxalate] | – | 71 | –
O=C1CSCN1CC#CCN1CCN(c2ccncc2)CC1 [3-(4-(4-Pyridyl)piperazino)-2-butynyl)-4-oxothiazolidine sesquioxalate] | – | 30 | –
O=C1CSCN1CC#CCN1CCC(c2noc3cc(Cl)ccc23)CC1 [3-(4-[3-(4-piperidyl)-6-chloro-benzisoxazole]-2-butynyl)-4-oxothiazolidine oxalate] | 39 | – | –
COc1ccccc1N1CCN(CC#CCN2CSCC2=O)CC1 [3-[4-(1-(2-Methoxyphenyl)piperazino)-2-butynyl]-4-oxothiazolidine sesquioxalate] | – | 51 | –
O=C1CSC2(CCCC2)N1CC#CCN1CCN(C(c2ccccc2)c2ccc(Cl)cc2)CC1 (stereo not shown) [4-(4-(1-(4-Chlorobenzhydryl)piperazino)-2-butynyl)-1-thia-4-azaspiro[4.4]nonane-3-one trisoxalate] | 30 | – | –
N=C(N)NCCN1CCCCCCC1 [guanethidine, reference compound] | – | 20 | –
CC(C)Cc1ccc(C(C)C(=O)O)cc1 (stereo not shown) [ibuprofen, reference compound] | – | – | % Inhibition of Writhing ([1]; standard, at 10.4 mg/kg s.c.): 50%
CC(C)=CCN1CCC2(C)c3cc(O)ccc3CC1C2C (stereo not shown) [pentazocine, reference compound] | – | – | % Inhibition of Writhing ([1]; standard, at 1.3 mg/kg s.c.): 50%
